Here are results for 25 compounds from patent US20240286998A1, “F[…], ANALOGUES THEREOF, AND METHODS USING SAME” (Saint Joseph's University, priority 2021, published 2024).

One series addresses 5-HT2B (Homo sapiens (Human), UniProt P41595). Put plainly: 5-HT2B Gq-mediated calcium flux functional assay. The format is cell-based. (Calcium assays in cells follow changes in intracellular calcium, usually with a dye or a luminescent sensor.)
The next series has as its target 5-HT1A (Homo sapiens (Human), UniProt P08908). Put plainly: 5-HT1A Gi/o-mediated cAMP inhibition, GloSensor assay. It is filed as cell-based.
The target of another series is 5-HT2A (Homo sapiens (Human), UniProt P28223). Put plainly: 5-HT2A Gq-mediated calcium flux functional assay. It is filed as cell-based.
The target of a further series is Serotonin 5-HT2A (human) (Homo sapiens (Human), UniProt P28223). Put plainly: 5-HT2A receptor binding, [3H]-ketanserin competition in membrane fractions. As to conditions: for 5-HT2A pKi ± SEM: 1 nM [3H]-ketanserin, Cheng-Prusoff, N=1-3.
Another series deals with 5-HT2C (Homo sapiens (Human), UniProt P28335). Put plainly: 5-HT2C Gq-mediated calcium flux functional assay. The format is cell-based.
Sequence of 5-HT2C (P28335 whole entry, looked up): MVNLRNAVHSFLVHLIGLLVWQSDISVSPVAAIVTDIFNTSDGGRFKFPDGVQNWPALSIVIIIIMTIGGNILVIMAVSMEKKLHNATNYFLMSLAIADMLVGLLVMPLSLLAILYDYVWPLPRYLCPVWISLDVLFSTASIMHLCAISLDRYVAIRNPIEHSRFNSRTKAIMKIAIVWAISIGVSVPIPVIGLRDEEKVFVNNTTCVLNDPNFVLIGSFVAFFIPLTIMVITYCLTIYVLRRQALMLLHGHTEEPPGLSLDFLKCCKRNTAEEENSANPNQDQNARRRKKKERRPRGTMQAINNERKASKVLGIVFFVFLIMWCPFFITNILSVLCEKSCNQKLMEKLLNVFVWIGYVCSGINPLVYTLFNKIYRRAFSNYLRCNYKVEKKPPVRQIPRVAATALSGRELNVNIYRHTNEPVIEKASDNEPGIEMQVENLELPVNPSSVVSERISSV
Setting [1] is: cAMP inhibition, 0.2 μM isoproterenol, IA = Inactive.

Molecules are shown by their SMILES. Counter-ions that a name gives are not always drawn.

Sequence of 5-HT2B (P41595 whole entry): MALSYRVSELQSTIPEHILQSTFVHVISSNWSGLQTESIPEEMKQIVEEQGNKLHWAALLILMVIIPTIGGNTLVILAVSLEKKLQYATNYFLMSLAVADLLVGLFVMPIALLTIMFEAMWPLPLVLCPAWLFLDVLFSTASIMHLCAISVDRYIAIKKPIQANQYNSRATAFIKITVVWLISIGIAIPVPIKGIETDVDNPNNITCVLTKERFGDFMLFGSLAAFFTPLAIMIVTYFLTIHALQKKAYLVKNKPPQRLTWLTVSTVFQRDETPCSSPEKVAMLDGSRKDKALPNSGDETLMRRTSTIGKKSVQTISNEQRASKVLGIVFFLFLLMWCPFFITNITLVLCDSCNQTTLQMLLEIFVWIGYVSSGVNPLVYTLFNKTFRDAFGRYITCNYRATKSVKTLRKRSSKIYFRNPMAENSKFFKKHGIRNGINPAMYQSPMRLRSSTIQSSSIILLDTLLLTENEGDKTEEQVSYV

Usually melting point stands for the temperature, or range, at which the solid turns liquid. On to `CC(C1CC1)N(C)CCc1c[nH]c2ccc(F)cc12` (centres unmarked) (as salt: HCl), for which the melting point was in the range of 100.7 to 101.5 °C.
On the same count and under the same terms, with `C=CCN(CCc1c[nH]c2ccc(F)cc12)C(C)C` (as salt: HCl) [Example 11, N-(2-(5-fluoro-1H-indol-3-yl)ethyl)-N-isopropylprop-2-en-1-amine] the figure was 132 to 134 °C.
Same read-out and setting: with `CCN(C)CC(=O)c1c[nH]c2ccc(F)cc12` the figure was 160.1 to 164.8 °C; with `C=CCN(CCc1c[nH]c2ccc(F)cc12)C(C)CC` (centres unmarked) (as salt: HCl) [compound 16, N-allyl-N-(2-(5-fluoro-1H-indol-3-yl)ethyl)butan-2-amine], 157 to 161.8 °C.
With `CCCN(CC)CCc1c[nH]c2cc(Cl)c(F)cc12` (as salt: hydrochloride) [compound 37, N-(2-(6-chloro-5-fluoro-1H-indol-3-yl)ethyl)-N-ethylpropan-1-amine], the melting point was 231 to 232.6 °C.
Same read-out and setting: with `CCN(CCc1c[nH]c2ccc(F)cc12)C1CC1` (as salt: hydrochloride) the figure was 219.7 to 220.1 °C.
Same read-out and setting: the result for `C=CCN(CCc1c[nH]c2ccc(F)cc12)C1CCC1` (as salt: HCl) [Example 14, N-allyl-N-(2-(5-fluoro-1H-indol-3-yl)ethyl)cyclobutanamine] reads 196.3 to 199 °C; that for `CCCN(CC)CCc1c[nH]c2ccc(F)cc12` (as salt: HCl) [Example 6, N-ethyl-N-(2-(5-fluoro-1H-indol-3-yl)ethyl)propan-1-amine], 154.5 to 155.4 °C.
As for `CCCN(CCC)CCc1c[nH]c2ccc(F)cc12` (as salt: HCl) [Example 5, N-(2-(5-fluoro-1H-indol-3-yl)ethyl)-N-propylpropan-1-amine], the melting point lay within 187.5 to 188 °C.
Compound `CC(C)N(CCc1c[nH]c2ccc(F)cc12)CC1CC1` (as salt: hydrochloride) came in with a melting point of 191 to 192.5 °C.
Same read-out and setting: the result for `CC(C)N(CC#N)CCc1c[nH]c2ccc(F)cc12` (as salt: HCl) [compound 17, 2-((2-(5-fluoro-1H-indol-3-yl)ethyl)(isopropyl)amino)acetonitrile] reads 147 to 150 °C (dec.); that for `CCN(C)CCc1c[nH]c2c(F)cc(F)cc12` (as salt: hydrochloride) [compound 69, 2-(5,7-difluoro-1H-indol-3-yl)-N-ethyl-N-methylethan-1-amine], 152.7 to 153.5 °C; that for `CCCN(CCc1c[nH]c2ccc(F)cc12)C(C)CC` (centres unmarked) (as salt: hydrochloride) [compound 22, N-(2-(5-fluoro-1H-indol-3-yl)ethyl)-N-propylbutan-2-amine], 153.2 to 155.4 °C.
As for `CC(C)N(CCc1c[nH]c2ccc(F)cc12)C1CCC1` (as salt: hydrochloride) [compound 40, N-(2-(5-fluoro-1H-indol-3-yl)ethyl)-N-isopropylcyclobutanamine], the melting point was in the range of 191.6 to 193 °C.
Same read-out and setting: with `CC(C)C(C)N(C)CCc1c[nH]c2ccc(F)cc12` (centres unmarked) (as salt: hydrochloride) the figure was 157.5 to 158.1 °C.
For `C=CCN(CCC)CCc1c[nH]c2ccc(F)cc12` (as salt: salt) [compound 35, N-(2-(5-fluoro-1H-indol-3-yl)ethyl)-N-propylprop-2-en-1-amine], the melting point fell in the range of 175.1 to 177.2 °C.
On to `CN(C)CCc1c[nH]c2ccc(F)cc12` [Compound 5-F-DMT], for which, on 5-HT2B (IA = Inactive, N=1-3), the “5-HT2B-Ca2+ FLUX Emax (% 5-HT)” value is 61.1 ± 2.0 % 5-HT and the “5-HT2B-Ca2+ FLUX pEC50” value is 8.70 ± 0.11. For the same compound, on 5-HT1A (setting [1]), the “5-HT1A-cAMP Emax (% 5-HT)” value is listed as 94.2 ± 3.4 % 5-HT and the “5-HT1A-cAMP pEC50” value is recorded as 6.69 ± 0.08. Moreover, on 5-HT2A (IA = Inactive, N=1-3), the “5-HT2A-Ca2+ FLUX Emax (% 5-HT)” value is 96.6 ± 1.0 % 5-HT and the “5-HT2A-Ca2+ FLUX pEC50” value is reported as 8.70 ± 0.03. For the same compound, the “5-HT2A pKi ± SEM” value on Serotonin 5-HT2A (human) amounted to 6.65. At 5-HT2C (IA = Inactive, N=1-3), the “5-HT2C-Ca2+ FLUX Emax (% 5-HT)” value is 100.3 ± 1.8 % 5-HT and the “5-HT2C-Ca2+ FLUX pEC50” value was 8.8 ± 0.06.
One may read the EC50 as the concentration giving half of the maximal effect. A word on the Ki: it is a measure of affinity in units of concentration, obtained from inhibition or displacement. Read a low Ki as a stronger hold on the target. As to `C=CCN(CCc1c[nH]c2ccc(F)cc12)C(C)CC` (centres unmarked) [compound 16, N-allyl-N-(2-(5-fluoro-1H-indol-3-yl)ethyl)butan-2-amine], the EC50 at 5-HT2B was 2.09 nM; on 5-HT1A, 166 nM; at 5-HT2A, 0.871 nM; at 5-HT2C, 49 nM. Also, on 5-HT2B (IA = Inactive, N=1-3), the “5-HT2B-Ca2+ FLUX Emax (% 5-HT)” value was 97.4 ± 1.7 % 5-HT. The “5-HT1A-cAMP Emax (% 5-HT)” value at 5-HT1A (setting [1]) is on record as 94.2 ± 2.2 % 5-HT. Besides, the “5-HT2A-Ca2+ FLUX Emax (% 5-HT)” value at 5-HT2A (IA = Inactive, N=1-3) stood at 103.4 ± 1.8 % 5-HT. The Ki on Serotonin 5-HT2A (human) was 1660 nM. Further, at 5-HT2C (IA = Inactive, N=1-3), the “5-HT2C-Ca2+ FLUX Emax (% 5-HT)” value came out at 84.3 ± 3.4 % 5-HT.
`C=CCN(CC)CCc1c[nH]c2ccc(F)cc12` (as salt: hydrochloride) [compound 36, N-ethyl-N-(2-(5-fluoro-1H-indol-3-yl)ethyl)prop-2-en-1-amine] gave a melting point of 123.7 to 128.5 °C.
Take `CCN(C)CCc1c[nH]c2ccc(F)cc12` [Example 12, N-ethyl-2-(5-fluoro-1H-indol-3-yl)-N-methylethan-1-amine]: the EC50 was 2.29 nM at 5-HT2B, 75.9 nM at 5-HT1A, 1.74 nM on 5-HT2A and 1.58 nM on 5-HT2C. The “5-HT2B-Ca2+ FLUX Emax (% 5-HT)” value at 5-HT2B (IA = Inactive, N=1-3) is recorded as 65.8 ± 1.6 % 5-HT. Moreover, the “5-HT1A-cAMP Emax (% 5-HT)” value at 5-HT1A (setting [1]) is given as 91.1 ± 1.7 % 5-HT. Moreover, at 5-HT2A (IA = Inactive, N=1-3), the “5-HT2A-Ca2+ FLUX Emax (% 5-HT)” value turned out to be 101.8 ± 1.1 % 5-HT. On Serotonin 5-HT2A (human), the “5-HT2A pKi ± SEM” value came to 6.66 ± 0.12. Also, at 5-HT2C (IA = Inactive, N=1-3), the “5-HT2C-Ca2+ FLUX Emax (% 5-HT)” value amounted to 117.2 ± 2.5 % 5-HT.
Turning to `CCCN(CCc1c[nH]c2ccc(F)cc12)C(C)C` (as salt: HCl) [Example 4, N-(2-(5-fluoro-1H-indol-3-yl)ethyl)-N-isopropylpropan-1-amine], the melting point fell in the range of 155.8 to 158 °C.
For the compound `CCC(C)N(C)CCc1c[nH]c2ccc(F)cc12` (centres unmarked) (as salt: HCl) [Example 3, N-(2-(5-fluoro-1H-indol-3-yl)ethyl)-N-methylbutan-2-amine], the melting point lay within 136.5 to 142 °C.
`CCC(C)N(CCc1c[nH]c2ccc(F)cc12)C(C)C` (centres unmarked) (as salt: HCl) [compound 32, N-(2-(5-fluoro-1H-indol-3-yl)ethyl)-N-isopropylbutan-2-amine]: the melting point was in the range of 193.7 to 195 °C.
On to `CCCN(CCC)CCc1c[nH]c2ccc(F)cc12` [Example 5, N-(2-(5-fluoro-1H-indol-3-yl)ethyl)-N-propylpropan-1-amine], for which the EC50 on 5-HT2B was 0.759 nM; at 5-HT1A, 74.1 nM; at 5-HT2A it was 0.724 nM; on 5-HT2C, 3.39 nM. Also, at 5-HT2B (IA = Inactive, N=1-3), the “5-HT2B-Ca2+ FLUX Emax (% 5-HT)” value stood at 104.1 ± 0.7 % 5-HT. The “5-HT1A-cAMP Emax (% 5-HT)” value at 5-HT1A (setting [1]) worked out at 87.5 ± 1.6 % 5-HT. Besides, on 5-HT2A (IA = Inactive, N=1-3), the “5-HT2A-Ca2+ FLUX Emax (% 5-HT)” value amounted to 106.7 ± 0.8 % 5-HT. Further, the “5-HT2A pKi ± SEM” value on Serotonin 5-HT2A (human) was determined as 6.20. Further, the “5-HT2C-Ca2+ FLUX Emax (% 5-HT)” value at 5-HT2C (IA = Inactive, N=1-3) was determined as 109.3 ± 3.1 % 5-HT.
As for `CC(C)N(C)CCc1c[nH]c2ccc(F)cc12` [Example 2, N-(2-(5-fluoro-1H-indol-3-yl)ethyl)-N-methylpropan-2-amine], the EC50 was 3.31 nM on 5-HT2B, 1820 nM at 5-HT1A, 1.95 nM at 5-HT2A and 21.9 nM on 5-HT2C. In addition, the “5-HT2B-Ca2+ FLUX Emax (% 5-HT)” value at 5-HT2B (IA = Inactive, N=1-3) is on record as 68.6 ± 1.7 % 5-HT. Further, the “5-HT1A-cAMP Emax (% 5-HT)” value on 5-HT1A (setting [1]) stood at 93.2 ± 4.7 % 5-HT. The “5-HT2A-Ca2+ FLUX Emax (% 5-HT)” value at 5-HT2A (IA = Inactive, N=1-3) was determined as 95.1 ± 0.8 % 5-HT. Also, at Serotonin 5-HT2A (human), the “5-HT2A pKi ± SEM” value was 6.36 ± 0.003. Also, on 5-HT2C (IA = Inactive, N=1-3), the “5-HT2C-Ca2+ FLUX Emax (% 5-HT)” value was found to be 64.6 ± 1.7 % 5-HT.
